Literature values, collected in patent publication US20090092696A1, “Herbal combination omega oil aphrodisiac” (priority 2007, published 2009).

Legend:
corpus cavernosum = details: for erection when injected directly into the corpus cavernosum: hypodermic needle injection; for duration of erection after injection: appropriate dose, intracavernosal
impotent men = details: ingestion
impotentia erectionis = details: buccal administration of 100 I.U. three times a day for 14 days

Row | Structure (SMILES) | erection when injected directly into the corpus cavernosum (corpus cavernosum) | other results
1 | CCN(CC)CCOC(=O)C(Cc1cccc2ccccc12)CC1CCCO1 (mixture of isomers) [naftidrofuryl] | caused erection | –
2 | COC(=O)[C@@H]1[C@H]2C[C@H]3c4[nH]c5ccccc5c4CCN3C[C@@H]2CC[C@@H]1O [Yohimbine] | – | subjective improvement in erectile ability (impotent men; impotent men treated): 38%; treated patients reporting complete satisfaction (impotent men): 5%
3 | CN(C)CCCN1c2ccccc2CCc2ccccc21 [imipramine] | caused erection | –
4 | CC[C@H](C)[C@@H]1NC(=O)[C@H](Cc2ccc(O)cc2)NC(=O)[C@@H](N)CSSC[C@@H](C(=O)N2CCC[C@H]2C(=O)N[C@@H](CC(C)C)C(=O)NCC(N)=O)NC(=O)[C@H](CC(N)=O)NC(=O)[C@H](CCC(N)=O)NC1=O [oxytocin] | – | improvement of impotentia erectionis (impotentia erectionis): 12 of the 16
5 | COc1ccc(Cc2nccc3cc(OC)c(OC)cc23)cc1OC [papaverine] | caused erection | duration of erection after injection (corpus cavernosum): unrelenting erection lasting for hours
6 | CC(COc1ccccc1)N(CCCl)Cc1ccccc1 (stereo not drawn) [phenoxybenzamine] | caused erection | duration of erection after injection (corpus cavernosum): unrelenting erection lasting for hours
7 | Cc1ccc(N(CC2=NCCN2)c2cccc(O)c2)cc1 [phentolamine] | caused erection | –
8 | CC(=O)Oc1cc(C(C)C)c(OCCN(C)C)cc1C [thymoxamine] | caused erection | –
9 | COc1ccc(CCN(C)CCCC(C#N)(c2ccc(OC)c(OC)c2)C(C)C)cc1OC (stereo not drawn) [verapamil] | caused erection | –
